# According to the NIST ThermoML archive (doi:10.1016/j.jct.2018.12.019):
# ± gives the expanded uncertainty stated by the source.
# Assays:
# [1] = xn = mol fraction of the nth substance listed; conditions: 98 kPa, Liquid; for speed of sound: Frequency=3 MHz, Single path-length method; for mass density: Vibrating tube method
# [2] = excess molar enthalpy (molar enthalpy of mixing); xn = mol fraction of the nth substance listed; conditions: 298.15 K, 98 kPa, Liquid, Calvet calorimetry
smiles,measurement,setting,value
Cn1ccnc1 [1-methylimidazole] + CCCO,speed of sound,"[1]; 288.15 K, x1 = 0.0507",1261.9 ± 1 m/s
same,speed of sound,"[1]; 288.15 K, x1 = 0.1042",1284.5 ± 1.1 m/s
same,speed of sound,"[1]; 288.15 K, x1 = 0.2018",1324.6 ± 1.1 m/s
same,speed of sound,"[1]; 288.15 K, x1 = 0.301",1364.2 ± 1.1 m/s
same,speed of sound,"[1]; 288.15 K, x1 = 0.4047",1405.6 ± 1.1 m/s
same,speed of sound,"[1]; 288.15 K, x1 = 0.5076",1446.2 ± 1.2 m/s
same,speed of sound,"[1]; 288.15 K, x1 = 0.6006",1483.1 ± 1.2 m/s
same,speed of sound,"[1]; 288.15 K, x1 = 0.7029",1523.8 ± 1.3 m/s
same,speed of sound,"[1]; 288.15 K, x1 = 0.8027",1564.5 ± 1.3 m/s
same,speed of sound,"[1]; 288.15 K, x1 = 0.903",1602 ± 1.4 m/s
same,speed of sound,"[1]; 288.15 K, x1 = 0.9532",1620.1 ± 1.4 m/s
same,speed of sound,"[1]; 288.15 K, x1 = 1",1634.1 ± 1.4 m/s
same,mass density,"[1]; 288.15 K, x1 = 0.0507",820.94 ± 0.81 kg/m3
same,mass density,"[1]; 288.15 K, x1 = 0.1042",834.73 ± 0.81 kg/m3
same,mass density,"[1]; 288.15 K, x1 = 0.2018",859.55 ± 0.81 kg/m3
same,mass density,"[1]; 288.15 K, x1 = 0.301",884.11 ± 0.81 kg/m3
same,mass density,"[1]; 288.15 K, x1 = 0.4047",909.21 ± 0.81 kg/m3
same,mass density,"[1]; 288.15 K, x1 = 0.5076",933.32 ± 0.81 kg/m3
same,mass density,"[1]; 288.15 K, x1 = 0.6006",954.58 ± 0.81 kg/m3
same,mass density,"[1]; 288.15 K, x1 = 0.7029",977.37 ± 0.81 kg/m3
same,mass density,"[1]; 288.15 K, x1 = 0.8027",999.22 ± 0.82 kg/m3
same,mass density,"[1]; 288.15 K, x1 = 0.903",1020.12 ± 0.82 kg/m3
same,mass density,"[1]; 288.15 K, x1 = 0.9532",1030.34 ± 0.83 kg/m3
same,mass density,"[1]; 288.15 K, x1 = 1",1039.36 ± 0.83 kg/m3
same,speed of sound,"[1]; 298.15 K, x1 = 0.0507",1227.2 ± 1 m/s
same,speed of sound,"[1]; 298.15 K, x1 = 0.1042",1249.6 ± 1.1 m/s
same,speed of sound,"[1]; 298.15 K, x1 = 0.2018",1289.5 ± 1.1 m/s
same,speed of sound,"[1]; 298.15 K, x1 = 0.301",1329 ± 1.1 m/s
same,speed of sound,"[1]; 298.15 K, x1 = 0.4047",1370.1 ± 1.1 m/s
same,speed of sound,"[1]; 298.15 K, x1 = 0.5076",1410.4 ± 1.2 m/s
same,speed of sound,"[1]; 298.15 K, x1 = 0.6006",1447 ± 1.2 m/s
same,speed of sound,"[1]; 298.15 K, x1 = 0.7029",1487.2 ± 1.3 m/s
same,speed of sound,"[1]; 298.15 K, x1 = 0.8027",1527.3 ± 1.3 m/s
same,speed of sound,"[1]; 298.15 K, x1 = 0.903",1564.6 ± 1.4 m/s
same,speed of sound,"[1]; 298.15 K, x1 = 0.9532",1582.6 ± 1.4 m/s
same,speed of sound,"[1]; 298.15 K, x1 = 1",1596.5 ± 1.4 m/s
same,mass density,"[1]; 298.15 K, x1 = 0.0507",812.86 ± 0.81 kg/m3
same,mass density,"[1]; 298.15 K, x1 = 0.1042",826.55 ± 0.81 kg/m3
same,mass density,"[1]; 298.15 K, x1 = 0.2018",851.23 ± 0.81 kg/m3
same,mass density,"[1]; 298.15 K, x1 = 0.301",875.67 ± 0.81 kg/m3
same,mass density,"[1]; 298.15 K, x1 = 0.4047",900.68 ± 0.81 kg/m3
same,mass density,"[1]; 298.15 K, x1 = 0.5076",924.7 ± 0.81 kg/m3
same,mass density,"[1]; 298.15 K, x1 = 0.6006",945.89 ± 0.81 kg/m3
same,mass density,"[1]; 298.15 K, x1 = 0.7029",968.62 ± 0.81 kg/m3
same,mass density,"[1]; 298.15 K, x1 = 0.8027",990.42 ± 0.82 kg/m3
same,mass density,"[1]; 298.15 K, x1 = 0.903",1011.3 ± 0.82 kg/m3
same,mass density,"[1]; 298.15 K, x1 = 0.9532",1021.51 ± 0.83 kg/m3
same,mass density,"[1]; 298.15 K, x1 = 1",1030.52 ± 0.83 kg/m3
same,speed of sound,"[1]; 308.15 K, x1 = 0.0507",1192.8 ± 1 m/s
same,speed of sound,"[1]; 308.15 K, x1 = 0.1042",1214.9 ± 1.1 m/s
same,speed of sound,"[1]; 308.15 K, x1 = 0.2018",1254.5 ± 1.1 m/s
same,speed of sound,"[1]; 308.15 K, x1 = 0.301",1293.8 ± 1.1 m/s
same,speed of sound,"[1]; 308.15 K, x1 = 0.4047",1334.7 ± 1.1 m/s
same,speed of sound,"[1]; 308.15 K, x1 = 0.5076",1374.6 ± 1.2 m/s
same,speed of sound,"[1]; 308.15 K, x1 = 0.6006",1410.8 ± 1.2 m/s
same,speed of sound,"[1]; 308.15 K, x1 = 0.7029",1450.6 ± 1.3 m/s
same,speed of sound,"[1]; 308.15 K, x1 = 0.8027",1490.2 ± 1.3 m/s
same,speed of sound,"[1]; 308.15 K, x1 = 0.903",1527.1 ± 1.4 m/s
same,speed of sound,"[1]; 308.15 K, x1 = 0.9532",1545.1 ± 1.4 m/s
same,speed of sound,"[1]; 308.15 K, x1 = 1",1559 ± 1.4 m/s
same,mass density,"[1]; 308.15 K, x1 = 0.0507",804.67 ± 0.81 kg/m3
same,mass density,"[1]; 308.15 K, x1 = 0.1042",818.26 ± 0.81 kg/m3
same,mass density,"[1]; 308.15 K, x1 = 0.2018",842.82 ± 0.81 kg/m3
same,mass density,"[1]; 308.15 K, x1 = 0.301",867.16 ± 0.81 kg/m3
same,mass density,"[1]; 308.15 K, x1 = 0.4047",892.08 ± 0.81 kg/m3
same,mass density,"[1]; 308.15 K, x1 = 0.5076",916.03 ± 0.81 kg/m3
same,mass density,"[1]; 308.15 K, x1 = 0.6006",937.17 ± 0.81 kg/m3
same,mass density,"[1]; 308.15 K, x1 = 0.7029",959.84 ± 0.81 kg/m3
same,mass density,"[1]; 308.15 K, x1 = 0.8027",981.59 ± 0.82 kg/m3
same,mass density,"[1]; 308.15 K, x1 = 0.903",1002.44 ± 0.82 kg/m3
same,mass density,"[1]; 308.15 K, x1 = 0.9532",1012.64 ± 0.83 kg/m3
same,mass density,"[1]; 308.15 K, x1 = 1",1021.66 ± 0.83 kg/m3
same,speed of sound,"[1]; 318.15 K, x1 = 0.0507",1158.7 ± 1 m/s
same,speed of sound,"[1]; 318.15 K, x1 = 0.1042",1180.6 ± 1.1 m/s
same,speed of sound,"[1]; 318.15 K, x1 = 0.2018",1219.9 ± 1.1 m/s
same,speed of sound,"[1]; 318.15 K, x1 = 0.301",1259 ± 1.1 m/s
same,speed of sound,"[1]; 318.15 K, x1 = 0.4047",1299.7 ± 1.1 m/s
same,speed of sound,"[1]; 318.15 K, x1 = 0.5076",1339.2 ± 1.2 m/s
same,speed of sound,"[1]; 318.15 K, x1 = 0.6006",1375.1 ± 1.2 m/s
same,speed of sound,"[1]; 318.15 K, x1 = 0.7029",1414.4 ± 1.3 m/s
same,speed of sound,"[1]; 318.15 K, x1 = 0.8027",1453.5 ± 1.3 m/s
same,speed of sound,"[1]; 318.15 K, x1 = 0.903",1490.1 ± 1.4 m/s
same,speed of sound,"[1]; 318.15 K, x1 = 0.9532",1507.9 ± 1.4 m/s
same,speed of sound,"[1]; 318.15 K, x1 = 1",1521.8 ± 1.4 m/s
same,mass density,"[1]; 318.15 K, x1 = 0.0507",796.32 ± 0.81 kg/m3
same,mass density,"[1]; 318.15 K, x1 = 0.1042",809.85 ± 0.81 kg/m3
same,mass density,"[1]; 318.15 K, x1 = 0.2018",834.3 ± 0.81 kg/m3
same,mass density,"[1]; 318.15 K, x1 = 0.301",858.56 ± 0.81 kg/m3
same,mass density,"[1]; 318.15 K, x1 = 0.4047",883.41 ± 0.81 kg/m3
same,mass density,"[1]; 318.15 K, x1 = 0.5076",907.3 ± 0.81 kg/m3
same,mass density,"[1]; 318.15 K, x1 = 0.6006",928.39 ± 0.81 kg/m3
same,mass density,"[1]; 318.15 K, x1 = 0.7029",951.01 ± 0.81 kg/m3
same,mass density,"[1]; 318.15 K, x1 = 0.8027",972.72 ± 0.82 kg/m3
same,mass density,"[1]; 318.15 K, x1 = 0.903",993.55 ± 0.82 kg/m3
same,mass density,"[1]; 318.15 K, x1 = 0.9532",1003.74 ± 0.83 kg/m3
same,mass density,"[1]; 318.15 K, x1 = 1",1012.76 ± 0.83 kg/m3
same,speed of sound,"[1]; 328.15 K, x1 = 0.0507",1124.9 ± 1 m/s
same,speed of sound,"[1]; 328.15 K, x1 = 0.1042",1146.6 ± 1.1 m/s
same,speed of sound,"[1]; 328.15 K, x1 = 0.2018",1185.7 ± 1.1 m/s
same,speed of sound,"[1]; 328.15 K, x1 = 0.301",1224.5 ± 1.1 m/s
same,speed of sound,"[1]; 328.15 K, x1 = 0.4047",1265 ± 1.1 m/s
same,speed of sound,"[1]; 328.15 K, x1 = 0.5076",1304.2 ± 1.2 m/s
same,speed of sound,"[1]; 328.15 K, x1 = 0.6006",1339.7 ± 1.2 m/s
same,speed of sound,"[1]; 328.15 K, x1 = 0.7029",1378.5 ± 1.3 m/s
same,speed of sound,"[1]; 328.15 K, x1 = 0.8027",1417.2 ± 1.3 m/s
same,speed of sound,"[1]; 328.15 K, x1 = 0.903",1453.4 ± 1.4 m/s
same,speed of sound,"[1]; 328.15 K, x1 = 0.9532",1471.1 ± 1.4 m/s
same,speed of sound,"[1]; 328.15 K, x1 = 1",1485 ± 1.4 m/s
same,mass density,"[1]; 328.15 K, x1 = 0.0507",787.79 ± 0.81 kg/m3
same,mass density,"[1]; 328.15 K, x1 = 0.1042",801.26 ± 0.81 kg/m3
same,mass density,"[1]; 328.15 K, x1 = 0.2018",825.64 ± 0.81 kg/m3
same,mass density,"[1]; 328.15 K, x1 = 0.301",849.84 ± 0.81 kg/m3
same,mass density,"[1]; 328.15 K, x1 = 0.4047",874.64 ± 0.81 kg/m3
same,mass density,"[1]; 328.15 K, x1 = 0.5076",898.5 ± 0.81 kg/m3
same,mass density,"[1]; 328.15 K, x1 = 0.6006",919.55 ± 0.81 kg/m3
same,mass density,"[1]; 328.15 K, x1 = 0.7029",942.13 ± 0.81 kg/m3
same,mass density,"[1]; 328.15 K, x1 = 0.8027",963.81 ± 0.82 kg/m3
same,mass density,"[1]; 328.15 K, x1 = 0.903",984.62 ± 0.82 kg/m3
same,mass density,"[1]; 328.15 K, x1 = 0.9532",994.81 ± 0.82 kg/m3
same,mass density,"[1]; 328.15 K, x1 = 1",1003.83 ± 0.83 kg/m3
same,excess molar enthalpy,[2]; x1 = 0.05,-0.032 ± 0.00167 kcal/mol
same,excess molar enthalpy,[2]; x1 = 0.101,-0.0624 ± 0.00311 kcal/mol
same,excess molar enthalpy,[2]; x1 = 0.193,-0.112 ± 0.00574 kcal/mol
same,excess molar enthalpy,[2]; x1 = 0.2923,-0.151 ± 0.00765 kcal/mol
same,excess molar enthalpy,[2]; x1 = 0.3845,-0.179 ± 0.00908 kcal/mol
same,excess molar enthalpy,[2]; x1 = 0.4985,-0.188 ± 0.00956 kcal/mol
same,excess molar enthalpy,[2]; x1 = 0.5962,-0.179 ± 0.00908 kcal/mol
same,excess molar enthalpy,[2]; x1 = 0.7004,-0.147 ± 0.00741 kcal/mol
same,excess molar enthalpy,[2]; x1 = 0.8026,-0.106 ± 0.00526 kcal/mol
same,excess molar enthalpy,[2]; x1 = 0.8897,-0.0564 ± 0.00287 kcal/mol
same,excess molar enthalpy,[2]; x1 = 0.9463,-0.0311 ± 0.00167 kcal/mol
same,excess molar enthalpy,[2]; x1 = 1,0 ± 0.000239 kcal/mol
